Assays:
[1] = tested on: human abdominal skin; assay: In vitro human skin permeation and skin disposition, flow-through diffusion cells (Examples 2, 2A, 2B); assay type: in vitro ADME; settings: for 30 h skin conc / 30 h cumulative amt / Flux / Lag time / Flux enhancement / 24 h cumulative amt / 24 h skin conc: 40% aqueous PEG 400 receiver fluid; for Flux enhancement: total cannabidiol versus cannabidiol
Protocol: Flow through diffusion cells were used for the permeation studies. HEPES-buffered Hanks' balanced salts containing 40% PEG 400 with gentamicin or 40% aqueous PEG 400 with gentamicin were used for the receiver compartment. Donor solution was comprised of 90:8:2 PG:H2O:IPM solution or gel formulation. […] Drug accumulation in the skin after a 24, 30 or 42 h diffusion experiment was determined as μmol/g wet tissue weight.
The skin samples used in the following experiments were obtained from abdominal reduction surgery and dermatomed to a thickness of approximately 200 μm. The skin samples used herein were frozen at −20° C. for less than six months.
One (1) L of receiver fluid was prepared by measuring 1 L of nanopure water into a graduated cylinder. 90% of the water was added to an Erlenmeyer flask. Hanks' salts (1 bottle) were added to the water along with 5.96 g of HEPES and 0.35 g of sodium bicarbonate. The pH of the solution was adjusted with 1 N sodium hydroxide solution to pH 7.4. The remaining water was added and the receiver fluid was filtered through a 0.2μ filter (Millipore, Billerica, Mass.). Fifty (50) mg of gentamicin was added to the filtered receiver fluid and 400 mL of the receiver fluid was removed and replaced with 400 mL of PEG 400.
The receiver fluid was prepared by measuring 600 mL of nanopure H2O into a graduated cylinder. The H2O was filtered through a 0.2μ filter (Millipore, Billerica, Mass.). Fifty (50) mg of gentamicin was added to the filtered H2O and 400 mL of PEG 400 was added.
The prodrugs were made up in a solution of 45:4:1 PG:H2O:IPM. For this solution, the appropriate amount of drug was weighed into a glass silanized culture tube and IPM was added, the 50 μL of PG to coat the drug, then an additional 247 μL PG was added and the donor solution was vortexed again. Finally 26 μL of water was added. The gel formulation resulted from the mixing of absolute ethanol, nanopure water, IPM, Carbopol® 980, 0.1 N sodium hydroxide solution and the respective drug.
The gel formulation was comprised of absolute ethanol, nanopure water, IPM, Carbopol® 980, 0.1 sodium hydroxide solution and respective drug. The anhydrous gel was comprised of absolute ethanol, PEG monoethyl ether 550, Klucel® hydroxypropylcellulose, and respective drug.
Dermatomed skin harvested from abdominoplasty, stored at −20° C., was used for the experiments. A PermeGear flow-through (In-Line, Hellertown, Pa.) diffusion cell system was used for the skin permeation studies.
Diffusion cells were kept at 32° C. with a circulating water bath. Human epidermal skin was arranged in the diffusion cell with stratum corneum (upper layer of skin) facing the donor compartment. The permeation area of the skin was 0.95 cm^2. The data was collected from a human skin donor with three diffusion cells per treatment.
The receiver solution was HEPES-buffered Hanks' balanced salts with gentamicin containing 40% PEG 400 at a pH of 7.4 or 40% aqueous PEG 400 and flow rate was adjusted to 0.8 mL/h. Each cell was charged with 0.10 mL of the respective drug formulation (donor solution) or 50 μL of gel formulation which was rubbed into the skin for 15 sec with a Teflon coated rod. The formulation was applied to ensure complete coverage. […]. Diffusion cells were covered with a stopper or cap for the duration of the study.
Samples were collected into scintillation vials in 3 h increments for either 24, 30, or 42 h. All the samples were stored at 4° C. until extracted. An aliquot (0.5 mL) of the diffusion sample was placed into a silanized HPLC vial and 0.5 mL of acetonitrile was added to the sample, capped and vortexed.
At the end of the experiment, the skin tissue was removed from the diffusion cell, rinsed with nanopure water, and blotted dry with a paper towel. The skin was tape stripped twice using book tape (Scotch™, 3M, St. Paul, Minn.) to remove drug formulation adhering to the tissue surface.

[2] = Plasma stability of cannabidiol prodrugs (bioconversion to parent drug); assay type: in vitro ADME; settings: di-prodrug in plasma; for % mono-prodrug at time (h): mono-prodrug formed
Protocol: An approximated 1 mg/mL stock solution of each prodrug was prepared in 100 μL of ethanol and 900 μL of acetonitrile. Ten (10) μL of stock was spiked into 1 mL of plasma and vortexed. The samples were kept sealed in an amber vial and samples were obtained to analyze for bioconversion to parent drug.

[3] = Table 18, 90:8:2 PG:H2O:IPM donor solution, CBD from applied prodrug
[4] = Table 18, 90:8:2 PG:H2O:IPM donor solution, as applied compound (CBD or intact prodrug)
[5] = Table 18, 90:8:2 PG:H2O:IPM donor solution, mono-prodrug from applied di-prodrug
[6] = Table 18, 90:8:2 PG:H2O:IPM donor solution, prodrug applied, as total cannabidiol equivalents
[7] = Table 23, gel formulation, as applied compound (CBD or intact prodrug)
[8] = Table 23, gel formulation, mono-prodrug (ALL00149) from applied di-prodrug
[9] = Table 23, gel formulation, prodrug applied, as total cannabidiol equivalents

With `C=C(C)[C@@H]1CCC(C)=C[C@H]1c1c(OC(=O)OC)cc(CCCCC)cc1OC(=O)OC` [ALL00143, CBD Bis(Methyl Carbonate)] the “30 h skin conc” value ([1]; Table 17, 90:8:2 PG:H2O:IPM donor solution, CBD from applied prodrug) was 0.5 ± 0.0 µmol/g, the “30 h skin conc” value ([1]; Table 17, 90:8:2 PG:H2O:IPM donor solution, as applied compound (CBD or intact prodrug)) was 5.8 ± 3.0 µmol/g and the “30 h skin conc” value ([1]; Table 17, 90:8:2 PG:H2O:IPM donor solution, prodrug applied, as total cannabidiol equivalents) was 6.0 ± 3.2 µmol/g. The “detected in the skin as” value ([1]; in donor solution) was “prodrug and trace amounts of cannabidiol”, the “permeated through the skin as” value ([1]; in donor solution) was “did not permeate through the skin or was below detection in the receiver samples” and the “total skin concentrations compared to cannabidiol” value ([1]; in donor solution) was “not higher”. The “% mono-prodrug at time (h)” value ([2]; Table 20, 1 h) was 0%, the “% mono-prodrug at time (h)” value ([2]; Table 20, 3 h) was 0% and the “% mono-prodrug at time (h)” value ([2]; Table 20, 24 h) was 0%. The “% Di-prodrug at time (h)” value ([2]; Table 20, 0 h) was 100%, the “% Di-prodrug at time (h)” value ([2]; Table 20, 1 h) was 82% and the “% Di-prodrug at time (h)” value ([2]; Table 20, 3 h) was 76%. For the same compound, the “% Di-prodrug at time (h)” value ([2]; Table 20, 24 h) was 65%.
With `C=C(C)[C@@H]1CCC(C)=C[C@H]1c1c(OC(=O)CO)cc(CCCCC)cc1OC(=O)CO` [ALL00147, CBD Diglycolate] the “30 h cumulative amt” value [1, 3] was 8.2 ± 7.0 nmol, the “30 h skin conc” value [1, 3] was 3.9 ± 0.8 µmol/g and the Flux [1, 3] was 0.7 ± 0.6 nmol/cm^2/h. The Lag time [1, 3] was 16.7 ± 0.7 h, the “30 h cumulative amt” value [1, 4] was 11.7 ± 3.8 nmol and the “30 h skin conc” value [1, 4] was 6.3 ± 5.6 µmol/g. For the same compound, the Flux [1, 4] was 0.7 ± 0.01 nmol/cm^2/h, the Lag time [1, 4] was 13.0 ± 5.9 h and the “30 h cumulative amt” value [1, 5] was 9.1 ± 0.2 nmol. The “30 h skin conc” value [1, 5] was 7.1 ± 6.3 µmol/g, the Flux [1, 5] was 0.6 ± 0.2 nmol/cm^2/h and the Lag time [1, 5] was 11.8 ± 5.9 h. For the same compound, the “30 h cumulative amt” value [1, 6] was 29.0 ± 3.4 nmol, the “30 h skin conc” value [1, 6] was 17.3 ± 12.6 µmol/g and the Flux [1, 6] was 1.9 ± 0.8 nmol/cm^2/h. For the same compound, the Lag time [1, 6] was 13.3 ± 5.0 h, the Flux enhancement ([1]; Table 18, 90:8:2 PG:H2O:IPM donor solution) was 0.24 and the “24 h cumulative amt” value [1, 7] was 0.9 nmol. For the same compound, the “24 h skin conc” value [1, 7] was 0.8 ± 0.7 µmol/g, the “24 h cumulative amt” value [1, 8] was 5.7 nmol and the “24 h skin conc” value [1, 8] was 8.7 ± 6.6 µmol/g. The Flux [1, 8] was 0.25 nmol/cm^2/h, the “24 h cumulative amt” value [1, 9] was 12.5 nmol and the “24 h skin conc” value [1, 9] was 9.5 ± 7.3 µmol/g. The Flux [1, 9] was 0.58 nmol/cm^2/h, the Flux enhancement ([1]; Table 23, gel formulation) was 2.0 and the “detected in the skin as” value ([1]; in donor solution) was “prodrug, mono-substituted prodrug, ALL00149, and cannabidiol”. For the same compound, the “flux compared to cannabidiol” value ([1]; in donor solution) was “did not increase the flux”, the “lag time compared to cannabidiol” value ([1]; in donor solution) was “not decreased” and the “permeated through the skin as” value ([1]; in donor solution) was “intact prodrug, mono-substituted prodrug (ALL00149), and cannabidiol”. The “total skin concentrations compared to cannabidiol” value ([1]; in donor solution) was “not higher”, the “detected in the skin as” value ([1]; in gel formulation) was “primarily as mono-prodrug, ALL00149 with a trace amount of ALL00147” and the “increase of the flux compared to cannabidiol” value ([1]; in gel formulation) was 2 fold. For the same compound, the “share permeated through the skin as cannabidiol” value ([1]; in gel formulation) was 47.2%, the “share permeated through the skin as intact di-prodrug” value ([1]; in gel formulation) was 7.2% and the “share permeated through the skin as mono-prodrug” value ([1]; in gel formulation) was 45.6%. The “total skin concentrations compared to cannabidiol” value ([1]; in gel formulation) was “weren't higher”, the “% mono-prodrug at time (h)” value ([2]; Table 20, 0.5 h) was 0% and the “% mono-prodrug at time (h)” value ([2]; Table 20, 2 h) was 0%. For the same compound, the “% mono-prodrug at time (h)” value ([2]; Table 20, 22 h) was 0%, the “% mono-prodrug at time (h)” value ([2]; Table 20, 24 h) was 0% and the “% Di-prodrug at time (h)” value ([2]; Table 20, 0 h) was 100%. For the same compound, the “% Di-prodrug at time (h)” value ([2]; Table 20, 0.5 h) was 55%, the “% Di-prodrug at time (h)” value ([2]; Table 20, 2 h) was 32% and the “% Di-prodrug at time (h)” value ([2]; Table 20, 22 h) was 13%. The “% Di-prodrug at time (h)” value ([2]; Table 20, 24 h) was 12%, the “% mono-prodrug at time (h)” value ([2]; Table 24, 0 h) was 3% and the “% mono-prodrug at time (h)” value ([2]; Table 24, 0.5 h) was 37%. The “% mono-prodrug at time (h)” value ([2]; Table 24, 1 h) was 10%, the “% mono-prodrug at time (h)” value ([2]; Table 24, 2 h) was 2% and the “% Di-prodrug at time (h)” value ([2]; Table 24, 0 h) was 97%. The “% Di-prodrug at time (h)” value ([2]; Table 24, 0.5 h) was 0%, the “% Di-prodrug at time (h)” value ([2]; Table 24, 1 h) was 0% and the “% Di-prodrug at time (h)” value ([2]; Table 24, 2 h) was 0%.

— US8293786B2 (Alltranz Inc., priority 2007, dated 2012)
